Here are results for 28 compounds from patent US20180340174A1, “METHOD FOR IDENTIFICATION OF MOLECULES WITH DESIRED CHARACTERISTICS” (NANOCORE APS, priority 2014, published 2018).

Where two headings read alike, the source gives them in different places. Where no end group is shown, it is not given here.

For test [1] the following is noted: Serizawa et al. 2007; cited from earlier work.
For test [2] the following is noted: Serizawa et al. 2007; cited from earlier work. This is another data set of the same source.
Test [3] is described as follows: Enrichment of CNT-binding peptide A2 displayed on bacteriophages versus mini-M13, blue/white colony counting.
The conditions of test [4]: Li et al. 2013; cited from earlier work.
For test [5] the following is noted: Serizawa et al. 2007; bound to Polystyrene (atactic); cited from earlier work.
The conditions of test [6]: Serizawa et al. 2007; bound to Polystyrene (syndiotactic); cited from earlier work.
The conditions of test [7]: Eijima et al. 2010; bound to PPV (hyper-branched); cited from earlier work.
For test [8] the following is noted: Eijima et al. 2010; bound to PPV (linear); cited from earlier work.
For test [9] the following is noted: Seker et al. 2011; Chen et al. 2006; cited from earlier work.
The conditions of test [10]: Sano et al. 2005; Meyers et al. 2007; cited from earlier work.
For test [11] the following is noted: Serizawa et al. 2007; bound to Polystyrene (isotactic); cited from earlier work.
For test [12] the following is noted: Seker et al. 2011; cited from earlier work.
For test [13] the following is noted: Matsuno et al. 2008; bound to PLLA (amorphous); cited from earlier work.
For test [14] the following is noted: Matsuno et al. 2008; bound to PMMA (atactic); cited from earlier work.
For test [15] the following is noted: Matsuno et al. 2008; bound to PLLA (melt crystallization); cited from earlier work.
For test [16] the following is noted: Matsuno et al. 2008; bound to PLLA (layer by layer); cited from earlier work.
The conditions of test [17]: Matsuno et al. 2008; bound to PDLA; cited from earlier work.
Test [18] can be described thus: Selection of polynucleotide-tagged molecules on carbon nanotubes without and with PPyCl repeat units in the medium (Example 15.0.0.0). In kind it is binding. The procedure: In this example library molecules (M) are peptides linked by […] (L) to DNA tags encoding the peptide. […] Identification of carbon nanotube binding molecules is described in Brown et al. (Small. 2008 April; 4 (4):416-20). The CNT target is prepared from single-walled carbon nanotubes (purified HiPCO, Carbon Nanotechnologies Inc., US) used as purchased. Bundles and individual tubes are suspended in dichloroethane by sonication and deposited on pieces of double side polished Si wafers. The CNT mats are inspected by scanning electron microscopy. A uniform, dense coverage on both sides of the 1 cm2 substrates is achieved by repeatedly depositing drops from the suspension, rinsing with isopropanol, and blow drying with nitrogen. Test enrichments are conducted inn a phosphate buffer (PKT). The enrichment for adhesion to CNT mats using solution conditions is done similarly to other searches for CNT binders. The population recovered from a single cycle of enrichment for binding to CNTs in a Tris-HCl buffer (TNT) differed from that obtained in PKT.
Binding molecules, which bind efficiently to a filler (carbon nanotubes) but not to a polymer matrix (PPyCl) of a composite material, are identified essentially as described in example 1.1.1.1. […]

For test [19] the following is noted: Serizawa et al. 2007; bound to PMMA (syndiotactic); cited from earlier work.
For test [20] the following is noted: Serizawa et al. 2007; bound to PMMA (isotactic); cited from earlier work.
The target of test [21] is T1, soluble epoxide hydrolase (sEH) (Homo sapiens, UniProt P34913).
T1 sequence (P34913 1-555): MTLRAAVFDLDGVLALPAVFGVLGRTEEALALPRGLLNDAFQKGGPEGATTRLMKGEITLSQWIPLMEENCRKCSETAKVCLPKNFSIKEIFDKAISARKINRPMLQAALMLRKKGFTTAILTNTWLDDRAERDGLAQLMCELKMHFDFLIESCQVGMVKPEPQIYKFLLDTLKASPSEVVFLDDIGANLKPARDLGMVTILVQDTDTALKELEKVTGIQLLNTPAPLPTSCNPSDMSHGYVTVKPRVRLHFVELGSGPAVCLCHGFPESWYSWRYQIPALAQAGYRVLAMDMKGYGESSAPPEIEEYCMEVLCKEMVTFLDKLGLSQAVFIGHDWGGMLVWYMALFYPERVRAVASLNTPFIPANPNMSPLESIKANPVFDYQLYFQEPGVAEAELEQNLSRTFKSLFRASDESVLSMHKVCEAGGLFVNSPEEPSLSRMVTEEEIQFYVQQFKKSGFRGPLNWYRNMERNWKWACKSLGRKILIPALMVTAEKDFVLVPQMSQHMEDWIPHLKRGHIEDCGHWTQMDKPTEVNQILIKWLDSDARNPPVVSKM
The following applies: Litovchick 2015; cited from earlier work.

The conditions of test [22]: Weiger et al. 2010; read-out: KD to HA; cited from earlier work.
For test [23] the following is noted: Wang et al. 2003; cited from earlier work.
For test [24] the following is noted: Islam et al. 2012; bound to Ceramic fluorapatite; cited from earlier work.
The conditions of test [25]: Islam et al. 2012; bound to Ceramic hydroxyl-apatite; cited from earlier work.

What is called Kd is the free concentration of one partner at which half of the binding sites on the other are occupied at equilibrium, for simple one-to-one binding. With HKPDANR, the Kd in test [1] was 0.025 nM.
In the case of FPGHSGP, in test [2], the dissociation constant (Kd) was 0.1 nM.
For the compound IFRLSWGTYFS [A2], the Enrichment fold in [3] (1 wash, CNT 0.02 mg/ml, 1.1E+9 bacteriophages) was found to be 100 fold; in [3] (3 washes, CNT 0.02 mg/ml, 1.1E+9 bacteriophages), 85 fold; in test [3] (10 washes, CNT 0.02 mg/ml, 1.1E+9 bacteriophages), 91 fold; in test [3] (one wash, CNT 0.02 mg/ml, 1.1E+11 bacteriophages), 2 fold; in test [3] (one wash, CNT 0.2 mg/ml, 1.1E+9 bacteriophages), 23 fold; in test [3] (one wash, CNT 0.2 mg/ml, 1.1E+11 bacteriophages), 7 fold. For the same compound, the Enrichment fold in test [3] (one wash, CNT 2 mg/ml, 1.1E+9 bacteriophages) is on record as 4 fold; in [3] (one wash, CNT 2 mg/ml, 1.1E+11 bacteriophages), 10 fold; in test [3] (ten washes with 1 min. sonication at 35 kHz and 160 W during washing, CNT 0.2 mg/ml, 1.1E+11 bacteriophages), 15 fold; in test [3] (ten washes, CNT 0.02 mg/ml, 1.1E+11 bacteriophages), 8 fold; in [3] (ten washes, CNT 0.2 mg/ml, 1.1E+9 bacteriophages), 17 fold; in test [3] (ten washes, CNT 0.2 mg/ml, 1.1E+11 bacteriophages) it was 19 fold. Besides, the Enrichment fold in test [3] (ten washes, CNT 2 mg/ml, 1.1E+9 bacteriophages) was 2 fold; in [3] (ten washes, CNT 2 mg/ml, 1.1E+11 bacteriophages), 3 fold; in test [3] (three washes with 1 min. sonication at 35 kHz and 160 W during washing, CNT 0.2 mg/ml, 1.1E+11 bacteriophages), 17 fold; in test [3] (three washes, CNT 0.02 mg/ml, 1.1E+11 bacteriophages), 16 fold; in [3] (three washes, CNT 0.2 mg/ml, 1.1E+9 bacteriophages), 16 fold; in [3] (three washes, CNT 0.2 mg/ml, 1.1E+11 bacteriophages), 16 fold. Further, the Enrichment fold in test [3] (three washes, CNT 2 mg/ml, 1.1E+9 bacteriophages) came out at 2 fold; in test [3] (three washes, CNT 2 mg/ml, 1.1E+11 bacteriophages), 4 fold. Further, the dissociation constant Kd in test [4] is 20000 nM.
On to FPGRPSP, for which the equilibrium dissociation constant (Kd) in [5] is 0.031 nM; in test [6], 0.0085 nM.
As to HTDWRLGTWHETS, the Kd in test [7] is 1300 nM; in test [8], 19000 nM.
For the compound CHKKPSKSC, the Kd in test [9] was 4.1 nM.
Consider SCSDCLKSVDFIPSSLASS, for which the equilibrium dissociation constant (Kd) in [10] is 250 nM.
YLTMPTP: the Kd in test [5] is 0.022 nM; in test [6], 0.005 nM.
As for GETRAPL, the Kd in [5] is 0.067 nM; in [11] it was 0.036 nM; in test [6], 0.0067 nM.
Take CPTSTGQAC: the equilibrium dissociation constant (Kd) in test [12] is 280 nM.
Take QLMHDYR: the equilibrium dissociation constant (Kd) is 150000 nM in test [13]; 180000 nM in [14]; 16000 nM in test [15]; 67000 nM in test [16]; 21000 nM in test [17].
“polynucleotide-tagged THRTSTLDYFVI-pyrene: polynucleotide-tagged peptide-pyrene which can bind to both carbon nanotubes and PPyCl (also: polynucleotide tag, site not given here)”: the “Outcome of selection on carbon nanotubes” value in test [18] (first experiment, medium as in example 1.1.1.1) was “identified as carbon nanotube binding molecules”; in [18] (second experiment, medium comprises repeat units of PPyCl) it was “removed during the partitioning step”.
As to GETQCAA, the Kd in test [5] was 0.034 nM; in test [6], 0.0074 nM.
With HTAQSTA, the Kd was 0.014 nM in test [5] and 0.01 nM in test [6].
Take ELWRPTR: the equilibrium dissociation constant (Kd) in test [19] was 150000 nM; in test [20], 3600 nM.
Turning to RKLPDAPGMHTW, the equilibrium dissociation constant (Kd) in test [10] is 13000 nM.
In the case of ELWSIDTSAHRK, the Kd is 27000 nM in [7] and 13000 nM in [8].
RHEPPLA: the Kd in test [5] was 0.056 nM; in [11], 0.021 nM; in test [6] it was 0.011 nM.
Consider THLPWQT, for which the dissociation constant (Kd) in [2] is 0.067 nM.
With HLESTPG, the dissociation constant Kd in [5] was 0.1 nM; in [11], 0.065 nM; in [6], 0.0079 nM.
In the case of `CN(CCn1cccn1)C(=O)c1ccc(-c2cccc(C(=O)NC3CCCCC3)c2)nc1` [compound 12], in [21], the “enrichment over two affinity-mediated selection steps compared to the average within the naïve library” value is “approximately 30,000 fold”.
As for QTWPPPLWFSTS, in test [9], the Kd is 810 nM.
Regarding SVSVGMKPSPRPGGGK, the dissociation constant (Kd) in test [22] was 14100 nM.
Regarding CTLHVSSYC, in test [12], the equilibrium dissociation constant (Kd) is 1100 nM.
On to HWKHPWGAWDTL, for which the dissociation constant (Kd) in test [23] was 50000 nM.
Turning to FSWEAFA, the figures for the Kd in test [5], in test [11] and in test [6] were 0.085 nM, 0.034 nM and 0.0061 nM, respectively.
As for RLNPPSQMDPPF, in test [9], the Kd is 8300 nM.
Consider KPRSVSG, for which the values for the Kd in test [24] and in [25] were 5400 nM and 7200 nM, respectively.
